How the values were obtained:
Scn1a+/- mice = assay: Hyperthermia-induced seizures in Scn1a+/- mice (Dravet syndrome model); format: in vivo, mouse
Procedure: Scn1a heterozygous mutant (Scn1a ^+/−) mice, a model of Dravet Syndrome (DS), and the littermate wild‐type (Scn1a ^+/+) mice (male, 24–28 days postnatal; Jackson Laboratory, US) received E2730 (10, 20 mg/kg) or vehicle orally 1 hour before hyperthermia stimulation. A rectal temperature probe (Physitemp, NJ) was fitted at 50 minutes post‐treatment, and mice were acclimated to the probe and test chamber for 10 minutes. At 1‐hour post‐treatment, core body temperature was elevated by a heat lamp connected to a feedback temperature controller (Physitemp) by 0.5°C every 2 minutes until a maximum of 42.5°C was reached. The threshold body temperatures for generalized tonic–clonic seizures were recorded for each mouse. The cut‐off time was set as 180 seconds.

[1] = Accelerating rotarod test in mice (motor coordination); conditions: male, ddY, mouse, in vivo, oral, 1 hour before test, read-out: TD50 (95% CI) in mouse rotarod test
Procedure: Motor incoordination is one of the most common AEs associated with the use of ASMs.[9] Therefore, motor coordination was evaluated in mice receiving E2730 to assess if it is a new ASM candidate with a wide margin between therapeutic effects and AEs. E2730 (50–400 mg/kg) or vehicle was orally administered in ddY mice (male, 5 weeks old) 1 hour before the rotarod test, and the latency for mice to fall off the rod was measured. The rod rotation of the rotarod apparatus (Muromachi Kikai) was continuously accelerated from 0 to 40 rpm in a cut‐off time of 180 seconds.

amygdala kindling rats = assay: Amygdala kindling in rats; format: in vivo, rat
Excerpt: A tripolar electrode was implanted into the basolateral amygdala of Wistar‐Kyoto rats (male, 7 weeks old; Charles River Laboratories Japan, Japan). After at least 5 days of recovery, the amygdala was stimulated using an electronic stimulator at currents starting at 0.04 mA (50 Hz, 1 millisecond monophasic square‐wave pulses, 1‐second duration each) then increasing by 25% to a 30‐second duration until the after‐discharge threshold (ADT) was attained. ADT was defined as the current at which abnormal electroencephalogram and at least Racine's stage‐1 seizure behavior were observed. In the Racine's stage, seizure severity was classified as: 1, mouth and facial movements; 2, head nodding; 3, forelimb clonus; 4, rearing; 5, rearing and falling. From the next day onwards, electrical stimulation at the previously determined ADT was performed once daily in each rat. The rats showing ≥3 consecutive Racine stage‐5 seizures were deemed epileptic and used for drug evaluation. The pre‐ADT (i.e. baseline) seizure threshold of each rat was established prior to drug administration. After >1 hour following the determination of pre‐ADT seizure threshold, E2730 (5–50 mg/kg), levetiracetam (25 mg/kg), or vehicle was orally administered to the rats. One hour after the administration, the post‐ADT seizure threshold of each rat was ascertained, and the ratios of post‐ADT to pre‐ADT readings were analyzed.

hGAT1 = target: T1, hGAT1 (Homo sapiens, UniProt P30531); assay: [3H]GABA uptake in hGAT1 stably expressing HEK293 cells; format: cell-based; conditions: 50 μM [3H]GABA
T1 construct: expressed in transfected cells; host or cells: HEK293
Procedure: (§1) HEK293 cells stably expressing human GAT1 (hGAT1), GAT2 (hGAT2), GAT3 (hGAT3), or betaine/GABA transporter 1 (hBGT‐1) were plated onto 96‐well microtiter plates at a density of 4.0 × 10^4 cells/well in Dulbecco's Modified Eagle's Medium (DMEM, containing 10% fetal bovine serum, 100 units/mL penicillin, 100 μg/mL streptomycin, 1% non‐essential amino acid solution, and 25 mM HEPES) and incubated overnight at 37°C in a 5% CO2 atmosphere. After washing the cells with Hanks’ balanced salt solution (HBSS, containing 140 mg/L CaCl2, 100 mg/L MgCl2, 20 mM HEPES, and 10 mM NaOH), E2730 (0.0128–1000 μM) was added to the plate. Following the addition of 50 μM [^3H]GABA, cells were incubated for 5 minutes at 37°C in a 5% CO2 atmosphere and then washed with cold HBSS. Washed cells were incubated in a scintillator for 1 hour at room temperature, followed by radioactivity measurements using a liquid scintillation counter.

hGAT2 = target: T2, hGAT2 (Homo sapiens, UniProt Q9NSD5); assay: [3H]GABA uptake in hGAT2 stably expressing HEK293 cells; format: cell-based; conditions: 50 μM [3H]GABA
T2 construct: expressed in transfected cells; host or cells: HEK293
T2 sequence (Q9NSD5 1-602): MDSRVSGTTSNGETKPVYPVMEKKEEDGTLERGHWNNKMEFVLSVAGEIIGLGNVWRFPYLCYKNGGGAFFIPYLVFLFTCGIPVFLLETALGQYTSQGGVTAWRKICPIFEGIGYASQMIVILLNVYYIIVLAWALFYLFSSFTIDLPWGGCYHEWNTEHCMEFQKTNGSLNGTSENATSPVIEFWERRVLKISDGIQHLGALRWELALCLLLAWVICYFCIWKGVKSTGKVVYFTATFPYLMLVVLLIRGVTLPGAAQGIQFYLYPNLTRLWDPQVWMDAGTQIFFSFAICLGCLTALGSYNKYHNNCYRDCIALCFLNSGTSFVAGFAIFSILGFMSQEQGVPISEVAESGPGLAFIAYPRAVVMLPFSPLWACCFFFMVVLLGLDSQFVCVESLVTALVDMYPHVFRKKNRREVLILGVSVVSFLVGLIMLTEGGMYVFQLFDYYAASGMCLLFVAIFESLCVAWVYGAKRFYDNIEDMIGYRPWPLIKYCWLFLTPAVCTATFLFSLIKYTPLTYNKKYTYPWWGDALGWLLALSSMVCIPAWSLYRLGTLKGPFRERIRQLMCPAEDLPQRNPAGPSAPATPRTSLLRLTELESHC
Procedure: as §1

[2] = target: T3, rat brain synaptosomal membranes (Rattus norvegicus, UniProt P23978); assay: Saturation binding of [3H]E2730 in rat brain synaptosomal membranes; conditions: [3H]E2730, Scatchard plot
T3 construct: Synaptosomal membranes were prepared using the whole brain without cerebellum, brainstem, or olfactory bulb; from tissue; host or cells: rat whole brain without cerebellum, brainstem or olfactory bulb; synaptosomal membranes
Procedure: Synaptosomal membranes were prepared using the whole brain without cerebellum, brainstem, or olfactory bulb from Sprague Dawley rats (male, 7 weeks old) or human cerebral cortex based on Fuks et al.[10] and Hanada et al.[11] Synaptosomal membranes (0.4 mg protein/tube) were incubated with 9.8–5000 nM [^3H]E2730 for 120 minutes at 4°C. Non‐specific binding was defined as the residual binding observed in the presence of 1 mM unlabeled E2730. […] The filters were washed three times with ice‐cold 50 mM Tris–HCl buffer (pH 7.4) and incubated overnight in a scintillator (PerkinElmer), then the radioactivity was measured by a liquid scintillation counter (PerkinElmer).

T1 sequence (P30531 whole entry): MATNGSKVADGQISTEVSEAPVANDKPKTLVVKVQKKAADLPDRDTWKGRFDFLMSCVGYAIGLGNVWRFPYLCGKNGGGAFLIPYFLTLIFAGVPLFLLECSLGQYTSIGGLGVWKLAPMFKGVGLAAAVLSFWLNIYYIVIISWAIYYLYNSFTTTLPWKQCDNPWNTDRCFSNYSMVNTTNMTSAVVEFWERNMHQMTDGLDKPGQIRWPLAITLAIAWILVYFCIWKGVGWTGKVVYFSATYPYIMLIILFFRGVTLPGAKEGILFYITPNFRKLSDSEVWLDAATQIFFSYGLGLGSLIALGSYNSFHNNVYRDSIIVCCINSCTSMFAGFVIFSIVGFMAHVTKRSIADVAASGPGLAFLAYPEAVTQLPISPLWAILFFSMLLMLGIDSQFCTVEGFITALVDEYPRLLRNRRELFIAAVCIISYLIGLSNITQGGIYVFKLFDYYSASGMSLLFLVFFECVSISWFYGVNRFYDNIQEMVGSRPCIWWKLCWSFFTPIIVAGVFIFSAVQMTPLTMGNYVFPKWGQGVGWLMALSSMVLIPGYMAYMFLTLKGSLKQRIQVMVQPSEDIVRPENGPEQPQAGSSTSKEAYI

In the case of `NS(=O)(=O)N[C@H]1c2c(F)cc(F)cc2CC1(F)F` [E2730], the “seizure occurrence in littermate WT (Scn1a+/+) mice” value (Scn1a+/- mice; 20 mg/kg, maximum temperature of 42.5°C) is reported as “No seizures occurred”, the “median threshold body temperature for generalized tonic-clonic seizures” value (Scn1a+/- mice; Scn1a+/- mice, 10 mg/kg oral) is reported as 41.2 °C and the “median threshold body temperature for generalized tonic-clonic seizures” value (Scn1a+/- mice; Scn1a+/- mice, 20 mg/kg oral) is reported as 42.4 °C. The “Minimum effective dose, hyperthermia-induced seizures” value (Scn1a+/- mice; Scn1a+/- mice, oral, footnote a: minimum effective dose) was 10 mg/kg, the TD50 at 1 h [1] was 350 mg/kg and the post-ADT/pre-ADT ratio (amygdala kindling rats; E2730 10 mg/kg oral, 1 hour after administration) was 129%. For the same molecule, the post-ADT/pre-ADT ratio (amygdala kindling rats; E2730 20 mg/kg oral) was 159%, the post-ADT/pre-ADT ratio (amygdala kindling rats; E2730 50 mg/kg oral) was 191% and the “Minimum effective dose, amygdala kindling (rat)” value (amygdala kindling rats; oral, footnote a: minimum effective dose) was 10 mg/kg. It also gave an IC50 (hGAT1) of 1.1 µM, an IC50 (hGAT2) of over 1000 µM and a Bmax [2] of 3419 fmol/mg protein. For the same molecule, the Kd [2] was 0.553 µM.

Reference: PMC10472371, “Discovery of E2730, a novel selective uncompetitive GAT1 inhibitor, as a candidate for anti‐seizure medication” (Epilepsia Open, 2023)
